# Laboratory results published in ChEMBL document CHEMBL3102730, “Synthesis and evaluation of isoleucine derived angiotensin II AT(2) receptor ligands” (Bioorg Med Chem Lett, 2014).
# Activity calls are given as the source filed them. No cut-off for these calls is given here.
# What was measured:
# [1] = target: T1, Type-1 angiotensin II receptor (Homo sapiens) (UniProt P30556); test: Binding affinity to AT1 receptor (unknown origin)
# T1 sequence (whole entry): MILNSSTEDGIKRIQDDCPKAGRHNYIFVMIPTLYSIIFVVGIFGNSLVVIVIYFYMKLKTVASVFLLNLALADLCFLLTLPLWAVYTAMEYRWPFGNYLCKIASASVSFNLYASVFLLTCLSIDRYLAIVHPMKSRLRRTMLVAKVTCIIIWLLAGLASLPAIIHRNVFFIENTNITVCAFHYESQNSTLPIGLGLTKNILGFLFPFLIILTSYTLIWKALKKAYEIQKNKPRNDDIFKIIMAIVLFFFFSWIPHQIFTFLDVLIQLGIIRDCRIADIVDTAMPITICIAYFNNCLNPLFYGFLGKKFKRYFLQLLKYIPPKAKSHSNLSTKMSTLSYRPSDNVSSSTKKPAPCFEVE
# [2] = target: T2, Type-2 angiotensin II receptor (Homo sapiens, UniProt P50052); test: Displacement of [125I]CGP-42112A from human AT2 receptor expressed in HEK293 cells; type: cell-based
# T2 sequence (P50052 whole entry): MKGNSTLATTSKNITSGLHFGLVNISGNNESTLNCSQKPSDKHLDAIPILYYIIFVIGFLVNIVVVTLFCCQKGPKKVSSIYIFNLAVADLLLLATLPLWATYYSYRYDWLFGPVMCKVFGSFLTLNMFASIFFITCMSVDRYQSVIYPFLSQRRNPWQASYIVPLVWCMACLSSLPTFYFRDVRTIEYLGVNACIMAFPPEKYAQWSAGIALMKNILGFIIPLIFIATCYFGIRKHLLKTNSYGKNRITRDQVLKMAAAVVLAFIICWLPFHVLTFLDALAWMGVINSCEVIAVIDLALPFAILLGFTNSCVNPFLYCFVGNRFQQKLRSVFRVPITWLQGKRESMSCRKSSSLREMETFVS
# [3] = target: T3, Type-2 angiotensin II receptor (Homo sapiens) (UniProt P50052); test: Displacement of [125I]CGP-42112A from human AT2 receptor expressed in HEK293 cells at 10 uM; type: cell-based
# T3 sequence (whole entry): T2 sequence (P50052 whole entry)
# [4] = target: T3, Type-2 angiotensin II receptor (Homo sapiens); test: Displacement of [125I]CGP-42112A from human AT2 receptor expressed in HEK293 cells at 1 uM; type: cell-based
# [5] = target: T2, Type-2 angiotensin II receptor; test: Displacement of [125I]Sarile from human AT2 receptor expressed in HEK293 cells; type: cell-based
Activity [1],Ki [2],inhibition [3],inhibition [4],Ki [5],Structure (SMILES)
inactive,> 100 µM,18%,6%,–,CC[C@H](C)[C@H](NC(=O)c1cccc(Cn2ccnc2)c1)C(=O)NNS(=O)(=O)c1ccccc1
inactive,–,3%,inactive,–,CCCCNC(=O)[C@@H](NC(=O)c1cccc(Cn2ccnc2)c1)[C@@H](C)CC
inactive,–,inactive,inactive,–,CC[C@H](C)[C@H](NC(=O)c1cccc(Cn2ccnc2)c1)c1nn[nH]n1
inactive,–,9%,6%,–,CC[C@H](C)[C@H](NC(=O)c1cccc(Cn2ccnc2)c1)C(=O)NC#N
inactive,> 100 µM,–,–,–,CCCCCS(=O)(=O)NNC(=O)[C@@H](NC(=O)c1cccc(Cn2ccnc2)c1)[C@@H](C)CC
inactive,–,inactive,inactive,–,CC[C@H](C)[C@H](NC(=O)c1cccc(Cn2ccnc2)c1)C(N)=O
inactive,9.9 µM,–,–,–,CCCCS(=O)(=O)NC(=O)[C@@H](NC(=O)c1cccc(Cn2ccnc2)c1)[C@@H](C)CC
inactive,18 µM,24%,5%,–,CC[C@H](C)[C@H](NC(=O)c1cccc(Cn2ccnc2)c1)C(=O)NS(=O)(=O)c1ccccc1
inactive,9.2 µM,20%,3%,–,CC[C@H](C)[C@H](NC(=O)c1cccc(Cn2ccnc2)c1)C(=O)NNS(=O)(=O)c1ccc(OC)cc1
inactive,> 100 µM,–,–,–,CCCCS(=O)(=O)NNC(=O)[C@@H](NC(=O)c1cccc(Cn2ccnc2)c1)[C@@H](C)CC
inactive,–,–,–,47 µM,CC[C@H](C)[C@H](NC(=O)c1cccc(Cn2ccnc2)c1)C(=O)O
inactive,29 µM,20%,4%,–,CC[C@H](C)[C@H](NC(=O)c1cccc(Cn2ccnc2)c1)C(=O)NNS(=O)(=O)c1ccc(C)cc1
inactive,8.5 µM,27%,10%,–,CC[C@H](C)[C@H](NC(=O)c1cccc(Cn2ccnc2)c1)C(=O)NNS(=O)(=O)c1c(C)cc(C)cc1C
inactive,–,14%,6%,–,CC[C@H](C)[C@H](NC(=O)c1cccc(Cn2ccnc2)c1)C(=O)NCC(F)(F)F
inactive,> 100 µM,–,–,–,CC[C@H](C)[C@H](NC(=O)c1cccc(Cn2ccnc2)c1)C(=O)NNC(=O)OC(C)(C)C
inactive,–,4%,inactive,–,CC[C@H](C)[C@H](NC(=O)c1cccc(Cn2ccnc2)c1)C(=O)NO
inactive,42 µM,17%,4%,–,CC[C@H](C)[C@H](NC(=O)c1cccc(Cn2ccnc2)c1)C(=O)Nc1nccs1
